The record followed here is US20250179066A1, “ZWITTERIONIC ANTIBACTERIAL COMPOUNDS” (Hoffmann-La Roche Inc., priority 2022, published 2025).

Broadly, the IC90 is the concentration at which the effect reaches the 90% level.

Structures can show the parent of a compound that is named as a salt.

For this assay, the system named is Acinetobacter baumannii ATCC17961. The assay is described as follows: Antimicrobial susceptibility testing: 90% growth inhibitory concentration (IC90) determination. Format: cell-based. The note with it: Acinetobacter baumannii, ATCC17961, 16 h, 90% growth inhibitory concentration against Acinetobacter baumannii ATCC17961, Iso-Sensitest broth, OD 600 nm over 16 h; read-out: ATCC 17961 IC90. The method, boiled down:
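Twofold serial dilutions (e.g. 10 to 0.0195 μM final) in Iso-Sensitest broth inoculated at ~5×10^5 CFU/mL, incubated at 35±2° C. OD600 read every minute for 16 h; IC90 is the concentration inhibiting 90% of growth during logarithmic phase.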
Take `CN(C)Cc1ccc(-n2cc(-c3cnc(C(=O)Nc4ccc(C(=O)N5CCN(C(=O)C6CC[N+](CC(=O)O)(CC7CNC7)CC6)CC5)c(Cl)c4)n3C)c(C(F)(F)F)n2)nc1` (stereo not drawn) [Example 84, 2-[1-(azetidin-3-ylmethyl)-4-[4-[2-chloro-4-[[5-[1-[5-[(dimethylamino)methyl]-2-pyridyl]-3-(trifluoromethyl)pyrazol-4-yl]-1-methyl-imidazole-2-carbonyl]amino]benzoyl]piperazine-1-carbonyl]piperidin-1-ium-1-yl]acetic acid. 1:1 formic acid. 1:1 formate]: the IC90 was 1280 nM. For the compound `Cn1c(-c2cn(-c3ccc(N)cn3)nc2C(F)(F)F)cnc1C(=O)Nc1ccc(C(=O)N2CCN(C(=O)CC[C@H](N)C(=O)O)CC2)c(Cl)c1` [Example 90, (2S)-2-amino-5-[4-[4-[[5-[1-(5-amino-2-pyridyl)-3-(trifluoromethyl)pyrazol-4-yl]-1-methyl-imidazole-2-carbonyl]amino]-2-chloro-benzoyl]piperazino]-5-keto-valeric acid. 1:1 2,2,2-trifluoroacetic acid], the 90% effect concentration (IC90) worked out at 1520 nM. Next, `CNc1ccc(-n2cc(-c3cnc(C(=O)Nc4ccc(C(=O)N5CCN(C(=O)[C@H]6CC[N@+](CC(=O)O)(CC7CNC7)CC6)CC5)c(C)c4)n3C)c(C(F)(F)F)n2)c(F)c1` [Example 107, cis-2-[1-(azetidin-3-ylmethyl)-4-[4-[4-[[5-[1-[2-fluoro-4-(methylamino)phenyl]-3-(trifluoromethyl)pyrazol-4-yl]-1-methyl-imidazole-2-carbonyl]amino]-2-methyl-benzoyl]piperazine-1-carbonyl]piperidin-1-ium-1-yl]acetic acid;2,2,2-trifluoroacetate]: 175 nM.

As to `Cn1c(-c2cn(-c3ccc4[nH]cnc4n3)nc2C(F)(F)F)cnc1C(=O)Nc1ccc(C(=O)N2CCN(C(=O)[C@H]3CC[N@+](CC(=O)O)(CC4CNC4)CC3)CC2)c(Cl)c1` [Example 55, cis-2-[1-(azetidin-3-ylmethyl)-4-[4-[2-chloro-4-[[5-[1-(1H-imidazo[4,5-b]pyridin-5-yl)-3-(trifluoromethyl)pyrazol-4-yl]-1-methyl-imidazole-2-carbonyl]amino]benzoyl]piperazine-1-carbonyl]piperidin-1-ium-1-yl]acetic acid. 1:1 2,2,2-trifluoroacetate], the IC90 is 550 nM. Next, `CC[C@@H]1CN(C(=O)C2CC[N+](CC(=O)O)(CC3CNC3)CC2)CCN1C(=O)c1ccc(NC(=O)c2ncc(-c3cn(-c4ccc(N)cn4)nc3C(F)(F)F)n2C)cc1Cl` (stereo partly drawn) [Example 78, 2-[4-[(3R)-4-[4-[[5-[1-(5-amino-2-pyridyl)-3-(trifluoromethyl)pyrazol-4-yl]-1-methyl-imidazole-2-carbonyl]amino]-2-chloro-benzoyl]-3-ethyl-piperazine-1-carbonyl]-1-(azetidin-3-ylmethyl)piperidin-1-ium-1-yl]acetic acid. 1:1 formate]: 1110 nM; `Cn1c(-c2cn(-c3ccc(N)cn3)nc2C(F)(F)F)cnc1C(=O)Nc1ccc(C(=O)N2CCN(C(=O)C3CC[N+](CCCC(=O)O)(CC4CNC4)CC3)CC2)c(Cl)c1` (stereo not drawn) [Example 60, 4-[4-[4-[4-[[5-[1-(5-amino-2-pyridyl)-3-(trifluoromethyl)pyrazol-4-yl]-1-methyl-imidazole-2-carbonyl]amino]-2-chloro-benzoyl]piperazine-1-carbonyl]-1-(azetidin-3-ylmethyl)piperidin-1-ium-1-yl]butyric acid. 1:1 2,2,2-trifluoroacetate]: 660 nM; `Cn1c(-c2cn(-c3cc4[nH]cc(C(=O)NCCO)c4cn3)nc2C(F)(F)F)cnc1C(=O)Nc1ccc(C(=O)N2CCN(C(=O)[C@H]3CC[N@+](CC(=O)O)(CC4CNC4)CC3)CC2)c(Cl)c1` [Example 146, cis-2-[1-(azetidin-3-ylmethyl)-4-[4-[2-chloro-4-[[5-[1-[3-(2-hydroxyethylcarbamoyl)-1H-pyrrolo[3,2-c]pyridin-6-yl]-3-(trifluoromethyl)pyrazol-4-yl]-1-methyl-imidazole-2-carbonyl]amino]benzoyl]piperazine-1-carbonyl]piperidin-1-ium-1-yl]acetic acid. 1:1 2,2,2-trifluoroacetate]: 311 nM. Regarding `Cn1c(-c2cn(-c3ccc(N)cn3)nc2C(F)(F)F)cnc1C(=O)Nc1ccc(C(=O)N2CCC(C(=O)N3CC[N+](CCCN)(CC(=O)O)CC3)CC2)c(Cl)c1` [Example 75, 2-[1-(3-aminopropyl)-4-[1-[4-[[5-[1-(5-amino-2-pyridyl)-3-(trifluoromethyl)pyrazol-4-yl]-1-methyl-imidazole-2-carbonyl]amino]-2-chloro-benzoyl]piperidine-4-carbonyl]piperazin-1-ium-1-yl]acetic acid. 1:1 2,2,2-trifluoroacetate], the 90% effect concentration (IC90) turned out to be 950 nM.

Turning to `Cn1c(-c2cn(-c3ccc(N)cn3)nc2C(F)(F)F)cnc1C(=O)Nc1ccc(C(=O)N2CCN(C(=O)[C@H]3CC[N@+](CC(=O)O)(CC4CNC4)CC3)CC2)c(Cl)c1` [Example 34, cis-2-[4-[4-[4-[[5-[1-(5-amino-2-pyridyl)-3-(trifluoromethyl)pyrazol-4-yl]-1-methyl-imidazole-2-carbonyl]amino]-2-chloro-benzoyl]piperazine-1-carbonyl]-1-(azetidin-3-ylmethyl)piperidin-1-ium-1-yl]acetic acid. 1:1 2,2,2-trifluoroacetic acid. 1:1 2,2,2-trifluoroacetate], the 90% effect concentration (IC90) was 400 nM. Next, `Cn1c(-c2cn(-c3ccc(NCCCCCCN)cn3)nc2C(F)(F)F)cnc1C(=O)Nc1ccc(C(=O)N2CCN(C(=O)C3CC[N+](CC(=O)O)(CC4CNC4)CC3)CC2)c(Cl)c1` (stereo not drawn) [Example 51, 2-[4-[4-[4-[[5-[1-[5-(6-aminohexylamino)-2-pyridyl]-3-(trifluoromethyl)pyrazol-4-yl]-1-methyl-imidazole-2-carbonyl]amino]-2-chloro-benzoyl]piperazine-1-carbonyl]-1-(azetidin-3-ylmethyl)piperidin-1-ium-1-yl]acetic acid. 1:1 2,2,2-trifluoroacetic acid. 1:1 2,2,2-trifluoroacetate]: 520 nM. Next, `Cc1cc(NC(=O)c2ncc(-c3cn(-c4ccc(O)cc4F)nc3C(F)(F)F)n2C)ccc1C(=O)N1CCN(C(=O)[C@H]2CC[N@@+](CCCN)(CC(=O)O)CC2)CC1` [Example 110, cis-2-[1-(3-aminopropyl)-4-[4-[4-[[5-[1-(2-fluoro-4-hydroxy-phenyl)-3-(trifluoromethyl)pyrazol-4-yl]-1-methyl-imidazole-2-carbonyl]amino]-2-methyl-benzoyl]piperazine-1-carbonyl]piperidin-1-ium-1-yl]acetic acid. 1:1 2,2,2-trifluoroacetate]: 207 nM; `Cn1c(-c2cn(-c3ccc4[nH]c(C[C@H](O)CO)cc4n3)nc2C(F)(F)F)cnc1C(=O)Nc1ccc(C(=O)N2CCN(C(=O)[C@H]3CC[N@+](CC(=O)O)(CC4CNC4)CC3)CC2)c(Cl)c1` [Example 160, cis-2-[1-(azetidin-3-ylmethyl)-4-[4-[2-chloro-4-[[5-[1-[2-[(2S)-2,3-dihydroxypropyl]-1H-pyrrolo[3,2-b]pyridin-5-yl]-3-(trifluoromethyl)pyrazol-4-yl]-1-methyl-imidazole-2-carbonyl]amino]benzoyl]piperazine-1-carbonyl]piperidin-1-ium-1-yl]acetic acid;formate]: 474 nM.
